Measurements as given in patent US20100112089A1, “PEPTIDE COMPOUND AND USE THEREOF” (Takeda Pharmaceutical Company Limited, priority 2008, published 2010).
Counter-ions that a name gives are not always drawn. Square brackets hold non-standard residues; d marks the D form. Peptide text beside a SMILES is read from it. dPhe(F5) = N[C@H](Cc1c(F)c(F)c(F)c(F)c1F)C(=O)O; dBpa = N[C@H](Cc1ccc(C(=O)c2ccccc2)cc1)C(=O)O; dCha = N[C@H](CC1CCCCC1)C(=O)O

Test system: patients with locally advanced or metastatic solid tumors
Assay: Phase I single agent study of CBP501 (Study A): MTD, DLT, safety, antitumor activity
Format: in vivo, human
Excerpt: PK was examined in cycle (cy) 1. MTD is the level below that where 2 of 3-6 patients (pts) have DLT during cy 1-2.
A minimum of 3 patients were to be enrolled at each dose level, and 6 in the event of DLT.
(1) Neutropenia Gr 4 lasting 7 days (5 days in combination study) or Gr 3-4 neutropenia with fever and/or infection, (2) Thrombocytopenia Gr 4 (or grade 3 with bleeding), (3) Treatment-related non-hematological toxicity Gr 3 or 4 (excluding Gr 3 vomiting or diarrhea with sub-optimal prophylactic and curative treatment), and (4) Dosing delay greater than 2 weeks or treatment discontinuation due to treatment-emergent adverse events or related severe laboratory abnormalities.
The MTD was defined as the dose level below that in which DLT was observed during the first 2 cycles in at least 2 out of the 3-6 patients assessable for determination of MTD. The MTD was to be the RD for future studies. Patients evaluable for MTD were those who completed 2 treatment cycles or experienced DLT during the first 2 cycles.
(1) Echocardiogram or MUGA scan (baseline and every 2 cycles), (2) Cardiac enzymes (CPK-MB, CPK-MM, troponin; baseline and prior to each administration), and (3) ECG (before infusion, end of infusion, and 1 hr after infusion end).
(1) Pathologically-confirmed, locally advanced or metastatic solid tumors, refractory to standard therapy or for which conventional therapy is not reliably effective, (2) Presence of measurable disease according to RECIST criteria was not required, but was recommended in additional patients entered at MTD, (3) Age ≧18 years; Eastern Cooperative Oncology Group (ECOG) PS 0-2; Life expectancy >3 months, (4) Adequate organ function (hematological, hepatic, renal, metabolic), and (5) Signed informed consent

[1] = cardiac monitoring, both studies
[2] = single agent, 9.5 mg/m^2, 3 pts
[3] = single agent, 16.9 mg/m^2, 3 pts
[4] = single agent, 22.5 mg/m^2, 7 pts

N=C(N)NCCC[C@@H](NC(=O)[C@@H](CCCNC(=N)N)NC(=O)[C@@H](CCC(N)=O)NC(=O)[C@@H](CCCNC(=N)N)NC(=O)[C@@H](CCCNC(=N)N)NC(=O)[C@@H](CCCNC(=N)N)NC(=O)[C@@H](CC1CCCCC1)NC(=O)[C@@H](Cc1c(F)c(F)c(F)c(F)c1F)NC(=O)[C@@H](CO)NC(=O)[C@@H](Cc1c[nH]c2ccccc12)NC(=O)[C@@H](CO)NC(=O)[C@H](N)Cc1ccc(C(=O)c2ccccc2)cc1)C(=O)O [CBP501, H-(D)p-Benzoylphenylalanyl-(D)seryl-(D)tryptophyl-(D)seryl-(D)pentafluorophenylalanyl-(D)cyclohexylalanyl-(D)arginyl-(D)arginyl-(D)arginyl-(D)glutaminyl-(D)arginyl-(D)arginine acetate salt] (H-[dBpa][dS][dW][dS][dPhe(F5)][dCha][dR][dR][dR][dQ][dR][dR]-OH)
QTc > 500 ms (patients) (Single agent (16 pts), centralized ECG review): 0
Abdominal pain Gr 1-2 (Single-agent (n = 30)): 7
Abdominal pain Gr 3 (Single-agent (n = 30)): 2
Allergy (includes infusion reaction, flushing, rash, etc.) Gr 1-2 (Single-agent (n = 30)): 18
Diarrhea Gr 1-2 (Single-agent (n = 30)): 5
Diarrhea Gr 3 (Single-agent (n = 30)): 1
Fatigue Gr 1-2 (Single-agent (n = 30)): 14
Fatigue Gr 3 (Single-agent (n = 30)): 1
Headache Gr 1-2 (Single-agent (n = 30)): 3
Increased troponin Gr 3 (Single-agent (n = 30)): 1
Nausea/Vomiting Gr 1-2 (Single-agent (n = 30)): 5
Neutropenia Gr 1-2 (Single-agent (n = 30)): 3
QTc prolongation Gr 1-2 (Single-agent (n = 30)): 10
Thrombocytopenia Gr 1-2 (Single-agent (n = 30)): 4
Anemia Gr 1-2 (Single-agent (n = 30), 16 with baseline anemia): 22 (16*)
patients with QTc prolongation by >60 msec (both studies, centralized ECG review (16 + 24 patients)): 4
start of allergic reaction into the infusion (both studies, rash, hot flushes, urticaria): 10 to 60 min
pts with QTcB >500 msec [1]: 1
pts with QTcB prolongation >60 msec [1]: 2
time for troponin to return to normal levels (patient at DL 8, single-agent, Gr 3 troponin elevation): within one week
tolerability (single agent): well tolerated
Patients with allergic reaction Gr1 (single agent, 0.9 mg/m^2, 4 pts): 1
Patients with allergic reaction Gr2 (single agent, 7.2 mg/m^2, 3 pts): 3
Patients with allergic reaction Gr1 [2]: 1
Patients with allergic reaction Gr2 [2]: 2
Patients with allergic reaction Gr1 [3]: 1
Patients with allergic reaction Gr2 [3]: 1
Patients with allergic reaction Gr1 [4]: 3
Patients with allergic reaction Gr2 [4]: 4
pts with Gr 1-2 allergy (single agent, 30 pts treated (43%), interim summary): 13
Patients with allergic reaction Gr1 (single agent, TOTAL, 30 pts): 7
Patients with allergic reaction Gr2 (single agent, TOTAL, 30 pts): 11
MTD (single agent, doses up to 22.5 mg/m^2): not reached
DLT (single-agent, dose 22.5 mg/m^2, 7 pts, 11 cycles): 1
